In article PMC11932996, “aac(6’)-Iaq, a novel aminoglycoside acetyltransferase gene identified from an animal isolate Brucella intermedia DW0551” (Frontiers in Cellular and Infection Microbiology, 2025):

Tested on: AAC(6’)-Iaq
Type: biochemical, Brucella intermedia

SMILES	Km
NCC[C@H](O)C(=O)N[C@@H]1C[C@H](N)[C@@H](O[C@H]2O[C@H](CN)[C@@H](O)[C@H](O)[C@H]2O)[C@H](O)[C@H]1O[C@H]1O[C@H](CO)[C@@H](O)[C@H](N)[C@H]1O [amikacin]	14.1 ± 0.76 µM
CCN[C@@H]1C[C@H](N)[C@@H](O[C@H]2OC(CN)=CC[C@H]2N)[C@H](O)[C@H]1O[C@H]1OC[C@](C)(O)[C@H](NC)[C@H]1O [netilmicin]	3.83 ± 0.34 µM
CN[C@@H]1[C@@H](O)[C@@H](O[C@@H]2[C@@H](O)[C@H](O[C@H]3OC(CN)=CC[C@H]3N)[C@@H](N)C[C@H]2N)OC[C@]1(C)O [sisomicin]	4.33 ± 1.32 µM
NC[C@H]1O[C@H](O[C@H]2[C@H](O)[C@@H](O[C@H]3O[C@H](CO)[C@@H](O)[C@H](N)[C@H]3O)[C@H](N)C[C@@H]2N)[C@H](O)[C@@H](O)[C@@H]1O [kanamycin]	13.3 ± 9.07 µM
NC[C@H]1O[C@H](O[C@H]2[C@H](O[C@@H]3O[C@H](CO)[C@@H](O)[C@H]3O)[C@@H](O)[C@H](N)C[C@@H]2N)[C@H](N)[C@@H](O)[C@@H]1O [ribostamycin]	10.1 ± 2.45 µM
